According to US6537948B1, “Uracil compounds and use thereof” (Sumitomo Chemical Company, Limited, priority 2000, dated 2003):

How the values were obtained:
Format in all cases: in vivo
[1] = tested on: ivyleaf morningglory (Ipomoea hederacea); assay: Test Example 1: foliar treatment of field; details: foliar spray, dosage 125 g/ha, 16 days after application
Description: (§1) A cylindrical plastic pot having a diameter of 10 cm and a depth of 10 cm was filled with soil and then seeded with ivyleaf morningglory (Ipomoea hederacea) and velvetleaf (Abutilon theophrasti). These test plants were grown in a greenhouse for 10 days. Then, each of compounds 1-2, 1-42, 1-45, 1-48, 2-2, 2-7, 2-42, 2-45, 3-2, 3-12, 4-7, 4-85, 5-12-R, 5-12-S, 5-17, 6-2, 7-2, 7-6, 7-8, 7-12, 7-48, 7-50, 7-84, 7-118, 7-119, 7-125, 9-7, 9-27 and 9-45 was formulated into an emulsifiable concentrate according to Formulation Example 2 and then diluted to the prescribed amount with water containing a spreading agent and the dilution was uniformly sprayed over the foliage of the test plants with a sprayer at a rate of 1000 liters per hectare. After the application, the test plants were grown in the greenhouse for 16 days, and the herbicidal activity was determined.

[2] = tested on: velvetleaf (Abutilon theophrasti); assay: Test Example 1: foliar treatment of field; details: foliar spray, dosage 125 g/ha, 16 days after application
Description: as §1

[3] = tested on: ivyleaf morningglory (Ipomoea hederacea); assay: Test Example 2: soil surface treatment of field; details: soil surface spray, dosage 500 g/ha, 19 days after application
From the text: (§2) A cylindrical plastic pot having a diameter of 10 cm and a depth of 10 cm was filled with soil and then seeded with ivyleaf morningglory (Ipomoea hederacea) and velvetleaf (Abutilon theophrasti). Then, each of the compounds 1-2, 1-42, 1-48, 2-2, 2-7, 2-42, 2-45, 3-2, 3-12, 4-7, 4-85, 5-12-R, 5-12-S, 5-17, 6-2, 7-2, 7-6, 7-8, 7-12, 7-48, 7-50, 7-84, 7-118, 7-119, 7-125, 9-7, 9-27 and 9-45 was formulated into an emulsifiable concentrate according to Formulation Example 2 and then diluted to the prescribed amount with water, and the dilution was uniformly sprayed over the surface of the soil with a sprayer at a rate of 1000 liters per hectare. After the application, the test plants were grown in the greenhouse for 19 days, and the herbicidal activity was examined.

[4] = tested on: velvetleaf (Abutilon theophrasti); assay: Test Example 2: soil surface treatment of field; details: soil surface spray, dosage 500 g/ha, 19 days after application
From the text: as §2

Cn1c(C(F)(F)F)cc(=O)n(-c2cc(Oc3cccnc3OCC(=O)O)c(Cl)cc2F)c1=O [Compound 7-6, 3-{2-chloro-4-fluoro-5-[3-methyl-2,6-dioxo-4-(trifluoromethyl)-1,2,3,6-tetrahydropyrimidin-1-yl]phenoxy}-2-carboxymethoxypyridine]
completely controlled: growth of ivyleaf morningglory (herbicidal activity) [1] | growth of velvetleaf (herbicidal activity) [2] | growth of ivyleaf morningglory (herbicidal activity) [3] | growth of velvetleaf (herbicidal activity) [4]

COC(=O)C(C)Oc1ccc(Oc2cc(-n3c(=O)cc(C(F)(F)F)n(C)c3=O)c(F)cc2Cl)cn1 (stereo not drawn) [Compound 7-12, 5-{2-chloro-4-fluoro-5-[3-methyl-2,6-dioxo-4-(trifluoromethyl)-1,2,3,6-tetrahydropyrimidin-1-yl]phenoxy}-2-{1-(methoxycarbonyl)ethoxy}pyridine]
completely controlled: growth of ivyleaf morningglory (herbicidal activity) [1] | growth of velvetleaf (herbicidal activity) [2] | growth of ivyleaf morningglory (herbicidal activity) [3] | growth of velvetleaf (herbicidal activity) [4]

CC(C)=NOC(=O)COc1ncccc1Oc1cc(-n2c(=O)cc(C(F)(F)F)n(C)c2=O)c(F)cc1Cl [Compound 7-118, 3-{2-chloro-4-fluoro-5-[3-methyl-2,6-dioxo-4-(trifluoromethyl)-1,2,3,6-tetrahydropyrimidin-1-yl]phenoxy}-2-isopropylidenaminoxycarbonylmethoxypyridine]
completely controlled: growth of ivyleaf morningglory (herbicidal activity) [1] | growth of velvetleaf (herbicidal activity) [2] | growth of ivyleaf morningglory (herbicidal activity) [3] | growth of velvetleaf (herbicidal activity) [4]

COC(=O)[C@H](C)Oc1n[nH]c(C)c1Oc1cc(-n2c(=O)cc(C(F)(F)F)n(C)c2=O)c(F)cc1Cl [Compound 5-12-S, (S)-3-{1-(methoxycarbonyl)ethoxy}-4-{2-chloro-4-fluoro-5-[3-methyl-2,6-dioxo-4-(trifluoromethyl)-1,2,3,6-tetrahydropyrimidin-1-yl]phenoxy}-5-methylpyrazole]
completely controlled: growth of ivyleaf morningglory (herbicidal activity) [1] | growth of velvetleaf (herbicidal activity) [2] | growth of ivyleaf morningglory (herbicidal activity) [3] | growth of velvetleaf (herbicidal activity) [4]

COC(=O)C(C)Oc1ncccc1Oc1cc(-n2c(=O)cc(C(F)(F)F)n(C)c2=O)c(F)cc1Cl (stereo not drawn) [Compound 7-2, 3-{2-chloro-4-fluoro-5-[3-methyl-2,6-dioxo-4-(trifluoromethyl)-1,2,3,6-tetrahydropyrimidin-1-yl]phenoxy}-2-{1-(methoxycarbonyl)ethoxy} pyridine]
completely controlled: growth of ivyleaf morningglory (herbicidal activity) [1] | growth of velvetleaf (herbicidal activity) [2] | growth of ivyleaf morningglory (herbicidal activity) [3] | growth of velvetleaf (herbicidal activity) [4]

COC(=O)COC(=O)COc1ncccc1Oc1cc(-n2c(=O)cc(C(F)(F)F)n(C)c2=O)c(F)cc1Cl [Compound 7-119, 3-{2-chloro-4-fluoro-5-[3-methyl-2,6-dioxo-4-(trifluoromethyl)-1,2,3,6-tetrahydropyrimidin-1-yl]phenoxy}-2-[(methoxycarbonyl)methoxycarbonylmethoxy]pyridine]
completely controlled: growth of ivyleaf morningglory (herbicidal activity) [1] | growth of velvetleaf (herbicidal activity) [2] | growth of ivyleaf morningglory (herbicidal activity) [3] | growth of velvetleaf (herbicidal activity) [4]

Cn1c(C(F)(F)F)cc(=O)n(-c2cc(Oc3cccnc3OCC(=O)OC3CCCC3)c(Cl)cc2F)c1=O [Compound 7-125, 3-{2-chloro-4-fluoro-5-[3-methyl-2,6-dioxo-4-(trifluoromethyl)-1,2,3,6-tetrahydropyrimidin-1-yl]phenoxy}-2-(c-pentyloxycarbonyl)methoxypyridine]
completely controlled: growth of ivyleaf morningglory (herbicidal activity) [1] | growth of velvetleaf (herbicidal activity) [2] | growth of ivyleaf morningglory (herbicidal activity) [3] | growth of velvetleaf (herbicidal activity) [4]

COC(=O)C(C)Oc1ccnc(Oc2cc(-n3c(=O)cc(C(F)(F)F)n(C)c3=O)c(F)cc2Cl)n1 (stereo not drawn) [Compound 1-2, methyl 2-([2-{2-chloro-4-fluoro-5-[3-methyl-2,6-dioxo-4-(trifluoromethyl)-1,2,3,6-tetrahydropyrimidin-1-yl]phenoxy}pyrimidin-4-yl]oxy)propionate]
completely controlled: growth of ivyleaf morningglory (herbicidal activity) [1] | growth of velvetleaf (herbicidal activity) [2] | growth of ivyleaf morningglory (herbicidal activity) [3] | growth of velvetleaf (herbicidal activity) [4]

COC(=O)COc1cccc(Oc2cc(-n3c(=O)cc(C(F)(F)F)n(C)c3=O)c(F)cc2Cl)n1 [Compound 2-45, 2-{2-chloro-4-fluoro-5-[3-methyl-2,6-dioxo-4-(trifluoromethyl)-1,2,3,6-tetrahydropyrimidin-1-yl]phenoxy}-6-(methoxycarbonyl)methoxypyridine]
completely controlled: growth of ivyleaf morningglory (herbicidal activity) [1] | growth of velvetleaf (herbicidal activity) [2] | growth of ivyleaf morningglory (herbicidal activity) [3] | growth of velvetleaf (herbicidal activity) [4]

CCOC(=O)COc1ncccc1Oc1cc(-n2c(=O)cc(C(F)(F)F)n(C)c2=O)c(F)cc1Cl [Compound 7-8, 3-{2-chloro-4-fluoro-5-[3-methyl-2,6-dioxo-4-(trifluoromethyl)-1,2,3,6-tetrahydropyrimidin-1-yl]phenoxy}-2-(ethoxycarbonyl)methoxypyridine]
completely controlled: growth of ivyleaf morningglory (herbicidal activity) [1] | growth of velvetleaf (herbicidal activity) [2] | growth of ivyleaf morningglory (herbicidal activity) [3] | growth of velvetleaf (herbicidal activity) [4]

CCCOC(=O)COc1ncccc1Oc1cc(-n2c(=O)cc(C(F)(F)F)n(C)c2=O)c(F)cc1Cl [Compound 7-48, 3-{2-chloro-4-fluoro-5-[3-methyl-2,6-dioxo-4-(trifluoromethyl)-1,2,3,6-tetrahydropyrimidin-1-yl]phenoxy}-2-(n-propoxycarbonyl)methoxypyridine]
completely controlled: growth of ivyleaf morningglory (herbicidal activity) [1] | growth of velvetleaf (herbicidal activity) [2] | growth of ivyleaf morningglory (herbicidal activity) [3] | growth of velvetleaf (herbicidal activity) [4]

COC(=O)C(C)Oc1cccnc1Oc1cc(-n2c(=O)cc(C(F)(F)F)n(C)c2=O)c(F)cc1Cl (stereo not drawn) [Compound 2-2, 2-{2-chloro-4-fluoro-5-[3-methyl-2,6-dioxo-4-(trifluoromethyl)-1,2,3,6-tetrahydropyrimidin-1-yl]phenoxy}-3-{1-(methoxycarbonyl)ethoxy}pyridine]
completely controlled: growth of ivyleaf morningglory (herbicidal activity) [1] | growth of velvetleaf (herbicidal activity) [2] | growth of ivyleaf morningglory (herbicidal activity) [3] | growth of velvetleaf (herbicidal activity) [4]

COC(=O)COc1cccnc1Oc1cc(-n2c(=O)cc(C(F)(F)F)n(C)c2=O)c(F)cc1Cl [Compound 2-7, 2-{2-chloro-4-fluoro-5-[3-methyl-2,6-dioxo-4-(trifluoromethyl)-1,2,3,6-tetrahydropyrimidin-1-yl]phenoxy}-3-(methoxycarbonyl)methoxypyridine]
completely controlled: growth of ivyleaf morningglory (herbicidal activity) [1] | growth of velvetleaf (herbicidal activity) [2] | growth of ivyleaf morningglory (herbicidal activity) [3] | growth of velvetleaf (herbicidal activity) [4]

CCCCCOC(=O)COc1ncccc1Oc1cc(-n2c(=O)cc(C(F)(F)F)n(C)c2=O)c(F)cc1Cl [Compound 7-50, 3-{2-chloro-4-fluoro-5-[3-methyl-2,6-dioxo-4-(trifluoromethyl)-1,2,3,6-tetrahydropyrimidin-1-yl]phenoxy}-2-(n-pentyloxycarbonyl)methoxypyridine]
completely controlled: growth of ivyleaf morningglory (herbicidal activity) [1] | growth of velvetleaf (herbicidal activity) [2] | growth of ivyleaf morningglory (herbicidal activity) [3] | growth of velvetleaf (herbicidal activity) [4]

COC(=O)[C@@H](C)Oc1n[nH]c(C)c1Oc1cc(-n2c(=O)cc(C(F)(F)F)n(C)c2=O)c(F)cc1Cl [Compound 5-12-R, (R)-3-{1-(methoxycarbonyl)ethoxy}-4-{2-chloro-4-fluoro-5-[3-methyl-2,6-dioxo-4-(trifluoromethyl)-1,2,3,6-tetrahydropyrimidin-1-yl]phenoxy}-5-methylpyrazole]
completely controlled: growth of ivyleaf morningglory (herbicidal activity) [1] | growth of velvetleaf (herbicidal activity) [2] | growth of ivyleaf morningglory (herbicidal activity) [3] | growth of velvetleaf (herbicidal activity) [4]
